Here are results for five molecules from ChEMBL document CHEMBL4229451, “Recent advances in peptidomimetics antagonists targeting estrogen receptor α-coactivator interaction in cancer therapy” (Bioorg Med Chem Lett, 2018).

For data set [1], the target named is T1, Estrogen receptor (Homo sapiens, UniProt P03372).
T1 sequence (P03372 whole entry): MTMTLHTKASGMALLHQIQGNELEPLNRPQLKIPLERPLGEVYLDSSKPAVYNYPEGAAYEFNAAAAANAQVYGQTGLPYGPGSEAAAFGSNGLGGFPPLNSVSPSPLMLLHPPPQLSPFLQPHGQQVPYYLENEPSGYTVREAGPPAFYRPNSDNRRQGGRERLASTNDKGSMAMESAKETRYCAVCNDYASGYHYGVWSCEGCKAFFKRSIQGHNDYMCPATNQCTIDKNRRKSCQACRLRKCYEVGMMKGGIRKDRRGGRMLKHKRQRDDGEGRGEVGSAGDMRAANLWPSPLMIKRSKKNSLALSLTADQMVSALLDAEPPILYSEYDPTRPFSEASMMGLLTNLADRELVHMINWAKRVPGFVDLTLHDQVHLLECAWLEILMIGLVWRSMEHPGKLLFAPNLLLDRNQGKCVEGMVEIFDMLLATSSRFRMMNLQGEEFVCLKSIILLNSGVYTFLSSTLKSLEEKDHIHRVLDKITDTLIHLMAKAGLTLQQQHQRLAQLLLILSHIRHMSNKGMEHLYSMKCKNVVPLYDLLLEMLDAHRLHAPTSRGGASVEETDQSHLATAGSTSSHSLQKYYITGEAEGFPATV
Put plainly: Displacement of FAM-LTERHKILHRLLQEGSPSD from ERalpha (unknown origin) (302 to 552 residues) expressed in Escherichia coli rosetta (DE3) after 1 hr by fluorescence polarization assay.

The target of data set [2] is Estrogen receptor beta (Homo sapiens, UniProt Q92731). The data set can be described thus: Displacement of FAM-LTERHKILHRLLQEGSPSD from ERbeta (unknown origin) (260 to 502 residues) expressed in Escherichia coli rosetta (DE3) after 1 hr by fluorescence polarization assay.
For data set [3], the target named is T1, Estrogen receptor. Put plainly: Displacement of THC-ketone from human ERalpha LBD (304 to 554 residues) expressed in Escherichia coli BL21(DE3) after 1 hr by fluorescence assay.
For data set [4], the target named is T1, Estrogen receptor. Put plainly: Binding affinity to recombinant N-terminal His6-tagged ERalpha LBD (unknown origin) (299 to 554 residues) by surface plasmon resonance method.
Data set [5] concerns the target T2, Estrogen receptor beta (Homo sapiens, UniProt Q92731, C334S/C369S/C481S). Put plainly: (§1) Binding affinity to recombinant human ERbeta LBD (259 to 498 residues) C334S/C369S/C481S triple mutant expressed in Escherichia coli BL21(DE3) by surface plasmon resonance method.
The test system of data set [6] is Estrogen receptor beta (Homo sapiens), Q92731 [C334S,C369S,C481S]. The data set is described as §1.
The target in data set [7] is T3, Estrogen receptor (Homo sapiens) (UniProt P03372).
T3 sequence (whole entry): T1 sequence (P03372 whole entry)
Put plainly: (§2) Binding affinity to recombinant human ERalpha LBD (301 to 553 residues) expressed in Escherichia coli BL21(DE3) by surface plasmon resonance method.

Data set [8] concerns the target T1, Estrogen receptor. Described as §2.
Data set [9] has as its target T1, Estrogen receptor. Put plainly: Binding affinity to recombinant human ERalpha LBD (301 to 553 residues) expressed in Escherichia coli BL21(DE3) using FAM-labelled compound after 1 hr by fluorescence polarization method.
Data set [10] in a line: Half life in rabbit serum at 100 uM by RP-HPLC method. Type of data set: ADME, cell-free, Oryctolagus cuniculus.
The target in data set [11] is T2, Estrogen receptor beta. Put plainly: Binding affinity to recombinant human ERbeta LBD (259 to 498 residues) C334S/C369S/C481S triple mutant expressed in Escherichia coli BL21(DE3) using FAM-labelled compound after 1 hr by fluorescence polarization method.

Starred links: 1 amine or outer side, 2 acyl side, 3 side chain; linkers in the order of their positions; H or OH if unused. Positions of bridges follow the written chain, without caps; N, C: chain ends. Non-standard residues stand in square brackets, D forms with d. Residues, ends and D or L forms follow the SMILES beside them. X1 = O=C([C@H](CCC/C=C/[*:3])N[*:1])[*:2]

Chain of Estrogen receptor beta (Homo sapiens, UniProt Q92731) (Q92731 whole entry, the tested form may be a part): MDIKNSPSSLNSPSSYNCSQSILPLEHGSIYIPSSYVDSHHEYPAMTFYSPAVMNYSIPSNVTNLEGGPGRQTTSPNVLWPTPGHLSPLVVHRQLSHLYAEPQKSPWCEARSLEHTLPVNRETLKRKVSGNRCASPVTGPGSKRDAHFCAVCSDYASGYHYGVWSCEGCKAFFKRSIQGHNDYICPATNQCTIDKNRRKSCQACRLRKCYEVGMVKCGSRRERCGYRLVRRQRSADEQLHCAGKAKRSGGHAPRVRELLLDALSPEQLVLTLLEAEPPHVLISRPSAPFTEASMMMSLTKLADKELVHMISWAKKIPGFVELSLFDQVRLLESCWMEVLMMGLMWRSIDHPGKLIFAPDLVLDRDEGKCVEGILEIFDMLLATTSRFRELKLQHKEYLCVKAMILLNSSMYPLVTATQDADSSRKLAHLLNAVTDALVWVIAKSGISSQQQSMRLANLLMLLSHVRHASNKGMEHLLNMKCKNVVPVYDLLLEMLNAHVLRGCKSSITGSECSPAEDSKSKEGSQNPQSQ
T2 sequence (Q92731 whole entry C334S/C369S/C481S, the tested form may be a part): as the sequence (Q92731 whole entry, the tested form may be a part) above, with C334S, C369S, C481S counted along it
Chain of Estrogen receptor beta (Homo sapiens), Q92731 [C334S,C369S,C481S] (Q92731 whole entry C334S/C369S/C481S): as the sequence (Q92731 whole entry, the tested form may be a part) above, with C334S, C369S, C481S counted along it

`CSCC[C@H](NC(=O)[C@H](CC(C)C)NC(=O)[C@H](CC(C)C)NC(=O)[C@@H]1CCCN1C(=O)[C@@H](N)Cc1cnc[nH]1)C(=O)N[C@@H](CCCNC(=N)N)C(=O)N[C@@H](CC(C)C)C(=O)N[C@@H](CC(C)C)C(=O)N[C@@H](Cc1cnc[nH]1)C(=O)N[C@@H](Cc1cnc[nH]1)C(=O)N1CCC[C@H]1C(=O)N[C@@H](CO)C(N)=O` (H-HPLLMRLLHHPS-NH2): the Ki was 1540 nM at Estrogen receptor [1] and 3640 nM on Estrogen receptor beta [2].
As to `CC[C@H](C)[C@H](NC(=O)[C@H](CCCCN)NC(=O)[C@H](Cc1cnc[nH]1)NC(=O)[C@H](CCCNC(=N)N)NC(=O)[C@H](CCC(=O)O)NC(=O)[C@@H](NC(=O)[C@H](CC(C)C)NC(=O)[C@@H](N)CS)[C@@H](C)O)C(=O)N[C@@H](CC(C)C)C(=O)N[C@@H](Cc1cnc[nH]1)C(=O)N[C@@H](CCCNC(=N)N)C(=O)N[C@@H](CC(C)C)C(=O)N[C@@H](CC(C)C)C(=O)N[C@@H](CCC(N)=O)C(=O)N[C@@H](CCC(=O)O)C(N)=O` (H-CLTERHKILHRLLQE-NH2), on Estrogen receptor [3], the affinity, expressed as Kd, was 900 nM.
For the molecule `CC[C@H](C)[C@H](NC(=O)[C@H](CCCCN)NC(=O)[C@H](Cc1cnc[nH]1)NC(C)=O)C(=O)N[C@@H](CC(C)C)C(=O)N[C@@H](Cc1cnc[nH]1)C(=O)N[C@@H](CCCNC(=N)N)C(=O)N[C@@H](CC(C)C)C(=O)N[C@@H](CC(C)C)C(=O)N[C@@H](CCC(N)=O)C(=O)N[C@@H](CC(=O)O)C(=O)N[C@@H](CO)C(N)=O` (Ac-HKILHRLLQDS-NH2), the figures for the dissociation constant (Kd) on Estrogen receptor [4], at Estrogen receptor beta [5] and at Estrogen receptor [8] were 2600 nM, 5 µM and 2500 nM, respectively. Also, the figures for the Kdiss in [6] and in [7] were 0.376 s⁻¹ and 0.347 s⁻¹, respectively.
On to `CSCC[C@H](NC(=O)[C@H](CC(C)C)NC(=O)[C@H](CC(C)C)NC(=O)[C@@H]1CCCN1C(=O)[C@@H](N)Cc1cnc[nH]1)C(=O)N[C@@H](CCCNC(=N)N)C(=O)N[C@@H](CC(C)C)C(=O)N[C@@H](CC(C)C)C(=O)N[C@@H](CC(C)C)C(=O)N[C@@H](CO)C(=O)N1CCC[C@H]1C(N)=O` (H-HPLLMRLLLSP-NH2), for which the inhibition constant Ki came to 185 nM at Estrogen receptor [1] and 25 nM on Estrogen receptor beta [2].
As for `CC[C@H](C)[C@@H]1NC(=O)[C@@H](NC(=O)[C@H](CCCNC(=N)N)NC(=O)[C@H](CCCCN)NC(=O)[C@@H](N)Cc2c[nH]c3ccccc23)CS/C=C/CCC[C@@H](C(=O)N[C@@H](CC(C)C)C(=O)N[C@@H](CC(C)C)C(=O)N[C@@H](CCC(N)=O)C(=O)N[C@@H](CCC(=O)O)C(N)=O)NC(=O)[C@H](CCCNC(=N)N)NC(=O)[C@H](CC(C)C)NC1=O` (H-WKRCILR[X1]LLQE-NH2; thioether 4-8), the Kd turned out to be 101 nM at Estrogen receptor [9] and 178 nM at Estrogen receptor beta [11]. This molecule gave a half-life at 100 µM in [10] of 1090 min.
